Measured values published in ChEMBL document CHEMBL3046521, “Synthesis and antitumor activity of (4-hydroxyphenyl)[5-substituted alkyl/aryl)-2-thioxo-1,3,4-thiadiazol-3-yl]methanone and [(3,4-disubstituted)-1,3-thiazol-2ylidene]-4-hydroxybenzohydrazide” (2011).

Columns and labels:
Type in all cases: functional
HL-60(TB) = experiment: Cytotoxicity against Homo sapiens (human) HL-60(TB) cells after 48 hr by sulforhodamine B assay; details: HL-60, 48 h
SF-295 = experiment: Cytotoxicity against Homo sapiens (human) SF295 cells after 48 hr by sulforhodamine B assay; details: SF-295, 48 h
CCRF-CEM = experiment: Cytotoxicity against Homo sapiens (human) CCRF-CEM cells after 48 hr by sulforhodamine B assay
SNB-75 = experiment: Cytotoxicity against Homo sapiens (human) SNB75 cells after 48 hr by sulforhodamine B assay; details: SNB-75, 48 h
SF-539 = experiment: Cytotoxicity against Homo sapiens (human) SF539 cells after 48 hr by sulforhodamine B assay; details: SF-539, 48 h
[1] = Cytotoxicity against Homo sapiens (human) NCI-ADR-RES cells after 48 hr by sulforhodamine B assay
NCI-H322M = experiment: Cytotoxicity against Homo sapiens (human) NCI-H322M cells after 48 hr by sulforhodamine B assay
UACC-62 = experiment: Cytotoxicity against Homo sapiens (human) UACC62 cells after 48 hr by sulforhodamine B assay; details: UACC-62, 48 h
OVCAR-5 = experiment: Cytotoxicity against Homo sapiens (human) OVCAR5 cells after 48 hr by sulforhodamine B assay; details: OVCAR-5, 48 h
NCI-H226 = experiment: Cytotoxicity against Homo sapiens (human) NCI-H226 cells after 48 hr by sulforhodamine B assay; details: NCI-H226, 48 h
LOX IMVI = experiment: Cytotoxicity against Homo sapiens (human) LOXIMVI cells after 48 hr by sulforhodamine B assay
SN12C = experiment: Cytotoxicity against Homo sapiens (human) SN12C cells after 48 hr by sulforhodamine B assay
OVCAR-4 = experiment: Cytotoxicity against Homo sapiens (human) OVCAR4 cells after 48 hr by sulforhodamine B assay; details: OVCAR-4, 48 h
SR = experiment: Cytotoxicity against Homo sapiens (human) SR cells after 48 hr by sulforhodamine B assay
[2] = Cytotoxicity against Homo sapiens (human) […] cells after 48 hr by sulforhodamine B assay
SK-OV-3 = experiment: Cytotoxicity against Homo sapiens (human) SKOV3 cells after 48 hr by sulforhodamine B assay; details: SK-OV-3, 48 h
EKVX = experiment: Cytotoxicity against Homo sapiens (human) EKVX cells after 48 hr by sulforhodamine B assay
SK-MEL-28 = experiment: Cytotoxicity against Homo sapiens (human) SK-MEL-28 cells after 48 hr by sulforhodamine B assay; details: SK-MEL-28, 48 h
COLO 205 = experiment: Cytotoxicity against Homo sapiens (human) COLO205 cells after 48 hr by sulforhodamine B assay; details: COLO 205, 48 h
MOLT-4 = experiment: Cytotoxicity against Homo sapiens (human) MOLT4 cells after 48 hr by sulforhodamine B assay; details: MOLT-4, 48 h
CAKI-1 = experiment: Cytotoxicity against Homo sapiens (human) Caki1 cells after 48 hr by sulforhodamine B assay; details: CAKI-1, 48 h
NCI-H460 = experiment: Cytotoxicity against Homo sapiens (human) NCI-H460 cells after 48 hr by sulforhodamine B assay; details: NCI-H460, 48 h
DU-145 = experiment: Cytotoxicity against Homo sapiens (human) DU145 cells after 48 hr by sulforhodamine B assay; details: DU-145, 48 h
A549 = experiment: Cytotoxicity against Homo sapiens (human) A549 cells after 48 hr by sulforhodamine B assay; details: A549, 48 h
SF-268 = experiment: Cytotoxicity against Homo sapiens (human) SF268 cells after 48 hr by sulforhodamine B assay; details: SF-268, 48 h
UO-31 = experiment: Cytotoxicity against Homo sapiens (human) UO31 cells after 48 hr by sulforhodamine B assay; details: UO-31, 48 h
SNB-19 = experiment: Cytotoxicity against Homo sapiens (human) SNB19 cells after 48 hr by sulforhodamine B assay; details: SNB-19, 48 h
KM12 = experiment: Cytotoxicity against Homo sapiens (human) KM12 cells after 48 hr by sulforhodamine B assay; details: KM12, 48 h
M14 = experiment: Cytotoxicity against Homo sapiens (human) M14 cells after 48 hr by sulforhodamine B assay; details: M14, 48 h
Hs-578T = experiment: Cytotoxicity against Homo sapiens (human) Hs 578T cells after 48 hr by sulforhodamine B assay
OVCAR-8 = experiment: Cytotoxicity against Homo sapiens (human) OVCAR8 cells after 48 hr by sulforhodamine B assay; details: OVCAR-8, 48 h

O=C(c1ccc(O)cc1)n1nc(-c2c(Cl)cccc2Cl)sc1=S
GI50 (HL-60(TB)): 2 µM
CC50 (HL-60(TB); read-out: pLC50 (the source's name) (converted)): > 100 µM
TGI (HL-60(TB); read-out: pTGI (converted)): 30.9 µM
GI50 (SF-295): 5.13 µM
LC50 (SF-295): > 100 µM
TGI (SF-295; read-out: pTGI (converted)): 29.5 µM
GI50 (CCRF-CEM): 9.55 µM
LC50 (CCRF-CEM): > 100 µM
TGI (CCRF-CEM; read-out: pTGI): > 100 µM
GI50 (SNB-75): 16.6 µM
LC50 (SNB-75): > 100 µM
TGI (SNB-75; read-out: pTGI (converted)): 50.1 µM
GI50 (SF-539): 14.8 µM
LC50 (SF-539): 58.9 µM
TGI (SF-539; read-out: pTGI (converted)): 29.5 µM
GI50 [1]: 10 µM
LC50 [1]: > 100 µM
TGI ([1]; read-out: pTGI (converted)): 49 µM
GI50 (NCI-H322M): 15.1 µM
LC50 (NCI-H322M): > 100 µM
TGI (NCI-H322M; read-out: pTGI (converted)): 66.1 µM
GI50 (UACC-62): 9.55 µM
LC50 (UACC-62): 58.9 µM
TGI (UACC-62; read-out: pTGI (converted)): 24 µM
GI50 (OVCAR-5): 19.5 µM
LC50 (OVCAR-5): > 100 µM
TGI (OVCAR-5; read-out: pTGI (converted)): 61.7 µM
GI50 (NCI-H226): 12.9 µM
LC50 (NCI-H226): > 100 µM
TGI (NCI-H226; read-out: pTGI (converted)): 57.5 µM
GI50 (LOX IMVI): 10 µM
LC50 (LOX IMVI): 75.9 µM
TGI (LOX IMVI; read-out: pTGI (converted)): 27.5 µM
GI50 (SN12C): 11.2 µM
LC50 (SN12C): > 100 µM
TGI (SN12C; read-out: pTGI (converted)): 46.8 µM
GI50 (OVCAR-4): 11.5 µM
LC50 (OVCAR-4): > 100 µM
TGI (OVCAR-4; read-out: pTGI (converted)): 77.6 µM
GI50 (SR): 1.51 µM
LC50 (SR): > 100 µM
TGI (SR; read-out: pTGI): > 100 µM
GI50 [2]: 7.59 µM
LC50 [2]: > 100 µM
TGI ([2]; read-out: pTGI (converted)): 60.3 µM
GI50 (SK-OV-3): 17.4 µM
LC50 (SK-OV-3): > 100 µM
TGI (SK-OV-3; read-out: pTGI (converted)): 44.7 µM
GI50 (EKVX): 5.01 µM
LC50 (EKVX): > 100 µM
TGI (EKVX; read-out: pTGI (converted)): 69.2 µM
GI50 (SK-MEL-28): 16.2 µM
LC50 (concentration killing 50% of cells) (SK-MEL-28): 87.1 µM
TGI (SK-MEL-28; read-out: pTGI (converted)): 37.2 µM
GI50 (COLO 205): 13.5 µM
LC50 (COLO 205): 64.6 µM
TGI (COLO 205; read-out: pTGI (converted)): 29.5 µM
GI50 (MOLT-4): 4.47 µM
LC50 (MOLT-4): > 100 µM
TGI (MOLT-4; read-out: pTGI (converted)): 27.5 µM
GI50 (CAKI-1): 6.03 µM
LC50 (CAKI-1): > 100 µM
TGI (CAKI-1; read-out: pTGI (converted)): 57.5 µM
GI50 (NCI-H460): 9.33 µM
LC50 (NCI-H460): 75.9 µM
TGI (NCI-H460; read-out: pTGI (converted)): 26.3 µM
GI50 (DU-145): 5.89 µM
LC50 (DU-145): 79.4 µM
TGI (DU-145; read-out: pTGI (converted)): 29.5 µM
GI50 (A549): 12.3 µM
LC50 (A549): > 100 µM
TGI (A549; read-out: pTGI (converted)): 58.9 µM
GI50 (SF-268): 7.59 µM
LC50 (SF-268): > 100 µM
TGI (SF-268; read-out: pTGI (converted)): 34.7 µM
GI50 (UO-31): 9.33 µM
LC50 (UO-31): > 100 µM
TGI (UO-31; read-out: pTGI): > 100 µM
GI50 (SNB-19): 15.1 µM
LC50 (SNB-19): > 100 µM
TGI (SNB-19; read-out: pTGI (converted)): 67.6 µM
GI50 (KM12): 3.8 µM
LC50 (KM12): 41.7 µM
TGI (KM12; read-out: pTGI (converted)): 14.8 µM
GI50 (M14): 8.91 µM
LC50 (M14): 67.6 µM
TGI (M14; read-out: pTGI (converted)): 25.7 µM
GI50 (Hs-578T): 29.5 µM
LC50 (Hs-578T): > 100 µM
TGI (Hs-578T; read-out: pTGI (converted)): 89.1 µM
GI50 (OVCAR-8): 22.9 µM
LC50 (OVCAR-8): > 100 µM
TGI (OVCAR-8; read-out: pTGI (converted)): 72.4 µM
